From PubChem BioAssay (NCI)
Where “and” joins values, the source holds several entries; their conditions need not be identical. Equal entries are not always repeated.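 Protocol summary: plate cells (96-well), add compound at 5 concentrations, incubate 48 h, interpolate endpoints linearly. GI50 is the concentration that inhibits growth by half. At the TGI there is no net growth.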

Key:
Assay in all cases: NCI anticancer screen, dose series, 48 h
COLO 205 colon = tested on: COLO 205 colon
SK-MEL-28 melanoma = tested on: SK-MEL-28 melanoma
U251 CNS = tested on: U251 CNS
OVCAR-8 ovarian = tested on: OVCAR-8 ovarian
RPMI-8226 leukemia = tested on: RPMI-8226 leukemia
NCI-H23 lung = tested on: NCI-H23 lung
UACC-62 melanoma = tested on: UACC-62 melanoma
NCI-H460 lung = tested on: NCI-H460 lung
HS 578T breast = tested on: HS 578T breast
NCI/ADR-RES ovarian = tested on: NCI/ADR-RES ovarian

Compound | TGI (COLO 205 colon) | TGI (SK-MEL-28 melanoma) | TGI (U251 CNS) | TGI (OVCAR-8 ovarian) | TGI (RPMI-8226 leukemia) | TGI (NCI-H23 lung) [µM] | TGI (UACC-62 melanoma) | TGI (NCI-H460 lung) | TGI (HS 578T breast) [µM] | GI50 (COLO 205 colon) [µM] | GI50 (SK-MEL-28 melanoma) [µM] | GI50 (NCI/ADR-RES ovarian) [µM] | TGI (NCI/ADR-RES ovarian) | GI50 (U251 CNS) [µM] | GI50 (HS 578T breast) [µM] | GI50 (OVCAR-8 ovarian) | GI50 (NCI-H23 lung) [µM] | GI50 (UACC-62 melanoma) [µM] | GI50 (NCI-H460 lung) | GI50 (RPMI-8226 leukemia)
COc1ccc(C2C(C(=O)O)=C(COC(C)=O)Oc3cc4c(cc32)OCO4)c(OC)c1 (stereo unspecified) | > 100 µM | > 100 µM | > 100 µM | > 100 µM | > 100 µM | > 100 | > 100 µM | > 100 µM |  |  |  |  |  |  |  |  |  |  |  | 
Clc1ccc(/C=C/c2csnn2)cc1 | > 100 µM | > 100 µM | > 100 µM | > 100 µM |  | > 100 | > 100 µM | > 100 µM |  |  |  |  |  |  |  |  |  |  |  | 
Cc1cccc(NC(=O)CSc2nnc(-c3ccc(N=Cc4ccc(Cl)cc4)cc3)o2)c1 | > 100 µM | > 100 µM | > 100 µM | > 100 µM | > 100 µM | > 100 | > 100 µM | > 100 µM |  |  |  |  |  |  |  |  |  |  |  | 
Nc1cccc(C(=O)/C=C/c2ccccc2O)c1 | > 100 µM | > 100 µM | > 100 µM | > 100 µM | 39.3 µM | > 100 | > 100 µM | > 100 µM |  |  |  |  |  |  |  |  |  |  |  | 
CC1(C)O[C@@H](CCl)C[C@@H](C#N)O1 | > 100 µM | > 100 µM | > 100 µM | > 100 µM | > 100 µM | > 100 | > 100 µM | > 100 µM |  |  |  |  |  |  |  |  |  |  |  | 
NC(=O)C1C(=O)Oc2cccnc21 (stereo unspecified) | > 100 µM | > 100 µM | > 100 µM | > 100 µM | > 100 µM | > 100 | > 100 µM | > 100 µM |  |  |  |  |  |  |  |  |  |  |  | 
Cc1cn([C@H]2CN(O)C[C@@H](CO)O2)c(=O)[nH]c1=O | > 100 µM | > 100 µM | > 100 µM | > 100 µM | > 100 µM |  | > 100 µM | > 100 µM | > 100 |  |  |  |  |  |  |  |  |  |  | 
CN(C)CN(C)c1nc(N(C)C)nc(N(C)C)n1 | > 100 µM | > 100 µM | > 100 µM | > 100 µM | > 100 µM | > 100 | > 100 µM | > 100 µM |  |  |  |  |  |  |  |  |  |  |  | 
c1ccc(-c2nc3ccccc3[nH]2)c(OCCCCCOc2ccccc2-c2nc3ccccc3[nH]2)c1 | 31.9 µM | 14 µM | 25.6 µM | 53 µM |  | 45.4 | 27.6 µM | 25.6 µM | 41 | 8.49 | 3.07 | 5.74 | 33.3 µM | 12.5 | 15.4 | 21.7 µM | 13.1 | 12.8 | 3.75 µM | 
O=C(Cn1ccnc1[N+](=O)[O-])NCc1ccc(F)cc1 | > 100 µM | > 100 µM | > 100 µM | > 100 µM | > 100 µM | > 100 | > 100 µM | > 100 µM |  |  |  |  |  |  |  |  |  |  |  | 
CC(=O)Nc1ccc2c(c1)[nH]c(=O)c1cc(Cl)ccc12 | > 100 µM | > 100 µM | > 100 µM | 64.9 µM |  | > 100 | > 100 µM | 52.9 µM | > 100 |  |  |  | > 100 µM |  |  |  |  |  |  | 
COc1cc2c(cc1OC)C(Sc1ccc(Cl)cc1)c1c(nc(N)c(C#N)c1N)O2 (stereo unspecified) | 2.95 µM | 3.11 µM | 2.14 µM | 2.76 µM | 4.8 µM |  | 2.66 µM | 3.74 µM | 6.43 | 1.43 | 1.57 |  |  | 0.916 | 1.98 | 1.39 µM |  | 1.27 | 1.65 µM | 1.42 µM
COc1ccc([C@H]2c3[nH]c4ccccc4c3C[C@H]3C(=O)N(CCCCCCC(=O)NO)CC(=O)N23)cc1 | 15 µM | > 33.3 µM | > 33.3 µM | > 33.3 µM |  | 28.7 | 3.97 µM | > 33.3 µM | > 33.3 | 2.04 | 1.29 | 4.26 | > 33.3 µM | 1.61 | 1.34 | 1.33 µM | 1.96 | 0.705 | 2.76 µM | 
CCOc1ccccc1NC(=O)C1=C(C)NC(C)=C(C(=O)Nc2ccccc2OCC)C1c1ccc2c(c1)OCO2 | > 100 µM | > 100 µM | > 100 µM | > 100 µM | > 100 µM | > 100 |  | > 100 µM |  |  |  |  |  |  |  |  |  |  |  | 
Cc1cc2nc3c(C(OC4OC(CO)C(O)C(O)C4O)C(O)CO)nn(-c4ccc(F)cc4)c3nc2cc1C (stereo unspecified) |  | > 100 µM | > 100 µM | > 100 µM | > 100 µM | > 100 | > 100 µM | > 100 µM |  |  |  |  |  |  |  |  |  |  |  | 
CN(C)CCC(/C=C/c1ccccc1)=N\Nc1c(F)c(F)c(F)c(F)c1F | > 100 µM | > 100 µM | > 100 µM | > 100 µM | > 100 µM | > 100 | > 100 µM | > 100 µM |  |  |  |  |  |  |  |  |  |  |  | 
OCCN1CCCN(CCCN2c3ccccc3Sc3ccc(C(F)(F)F)cc32)CC1 | 3.68 µM | 3.03 µM | 4.32 µM | 12.2 µM | 4.46 µM |  |  | 3.77 µM | 5.89 | 1.94 | 1.64 | 3.57 | 14.7 µM | 2.04 | 2.04 | 3.46 µM |  |  | 1.95 µM | 2.21 µM
O=C(N[C@H]1CC2(C=C(I)C(=O)C(I)=C2)OC1=O)OCc1ccccc1 | 28.1 µM | 33.5 µM | 31.5 µM | 31.3 µM | > 100 µM | 32.6 | 30.2 µM | 43 µM |  |  |  |  |  |  |  |  |  |  |  | 
COc1ccc(S(=O)(=O)NNS(C)(=O)=O)cc1OC | > 100 µM |  | > 100 µM | > 100 µM | > 100 µM | > 100 | > 100 µM | > 100 µM |  |  |  |  |  |  |  |  |  |  |  | 
Nc1nc2c(ncn2C2OC(CO)C(O)C2O)c(=O)[nH]1 (stereo unspecified) | > 100 µM and 113 µM | > 100 µM and 265 µM | > 100 µM and 237 µM | > 100 µM and 204 µM | > 100 µM and 139 µM | 175 | > 100 µM and 175 µM | > 100 µM and 154 µM |  | > 100 |  | > 100 | > 100 µM and 238 µM | > 100 |  | > 100 µM and 15 µM |  | > 100 | > 100 µM and 15.5 µM | > 100 µM and 30.8 µM
